From EP0621779B1, “INDOMETHACIN LYSINATE FOR THERAPEUTIC USE IN OPHTHALMOLOGY” (JUNG, Jean, priority 1992, dated 1993)

Assays:
[1] = Ocular passage / ocular bioavailability after instillation of eye drops; type: in vivo
Method: Les biodisponibilités oculaires des deux formes pharmaceutiques sont équivalentes : le passage obtenu avec la solution à 0,142 % d'indométacine (du lysinate d'indométacine) est similaire à celui obtenu avec la suspension à 1 % (INDOCID®). Cette dernière constatation permet d'affirmer que le passage des collyres à travers les différentes barrières oculaires s'effectue bien par la fraction soluble et non par endocytose de microparticules.
Il faut noter également qu'au temps de prélèvement de 2 h les concentrations d'indométacine mesurées dans l'oeil traité par la solution de lysinate d'indométacine à 0,142 % d'indométacine sont supérieures à celles mesurées dans l'oeil traité par la suspension à 1 % d'indométacine; cela peut être dû à une élimination plus rapide de la forme suspension par le fluide lacrymal en raison de l'irritation oculaire provoquée par la taille des particules.
Elle augmente ensuite régulièrement pour atteindre sa valeur maximale environ 30 minutes après l'instillation (3 à 5 % de la dose instillée) et diminue finalement.

[2] = Solubility in solvents (physico-chemical characters); type: physicochemical
Excerpt: Les données des études spectrales (IR, UV, RNM) sont conformes à la structure définie.

[3] = Stability of the isolated salt (storage; dry heat sterilisation of the powder); type: physicochemical; conditions: poudre
Excerpt: Dans un premier temps, la stabilité du lysinate d'indométacine en fonction de la température a été prouvée et les conditions de température et de durée utilisées pour la stérilisation ont été définis. Dans un deuxième temps, une étude microbiologique a permis de vérifier l'efficacité de la méthode.

Row | SMILES | concentration de l'indométacine dans l'humeur aqueuse ([1]; 10 minutes après l'instillation) | Tmax ([1]; in vivo, topical or ocular, humeur aqueuse, read-out: time after instillation to reach valeur maximale dans l'humeur aqueuse (converted)) | solubilité ([2]; dans l'acétone) | solubilité ([2]; dans l'acétonitrile) | solubilité ([2]; dans l'eau) | solubilité ([2]; dans l'éthanol) | solubilité ([2]; dans l'éther) | solubilité ([2]; dans le chloroforme) | solubilité ([2]; dans le dichlorométhane) | solubilité ([2]; dans le méthanol) | passage oculaire (biodisponibilité oculaire) ([1]; solution à 0,142 % d'indométacine, compared with suspension à 1 % (INDOCID®)) | concentrations d'indométacine mesurées dans l'oeil traité ([1]; temps de prélèvement de 2 h, solution à 0,142 % d'indométacine compared with suspension à 1 % d'indométacine) | stabilité dans le temps ([3]; conditions classiques de conservation) | stabilité à la stérilisation par la chaleur sèche ([3]; température supérieure à 170°C)
1 | COc1ccc2c(c1)c(CC(=O)O)c(C)n2C(=O)c1ccc(Cl)cc1 [indométacine, reference compound] | pratiquement nulle | ~30 min | – | – | – | – | – | – | – | – | – | – | – | –
2 | COc1ccc2c(c1)c(CC(=O)O)c(C)n2C(=O)c1ccc(Cl)cc1 [lysinate d'indométacine] | – | – | pratiquement insoluble | totalement insoluble | soluble | totalement insoluble | totalement insoluble | pratiquement insoluble | pratiquement insoluble | soluble | similaire | supérieures | stables dans le temps | sans être dégradé
